Key:
Type in all cases: in vivo
Phalaris canariensis = assay: Post emergence treatment, herbicidal activity against PHACA; design: scale not given here
Procedure: (§1) Synergism can be described as an interaction where the combined effect of two or more compounds is greater than the sum of the individual effects of each of the compounds. […] However, the weed control afforded by the compounds, mixtures or compositions is not limited to these species.The analysis of synergism or antagonism between the mixtures or compositions was determined using Colby's equation. Analogously, the Colby's equation can be used to determine synergism of 3-way and higher mixtures: [table] Post Emergence Treatment by the Mixture of (Imazamox+Imazethapyr)+Bentazon Post Emergence Treatment by the Mixture of (Imazamox+Imazethapyr)+Fomesafen Post Emergence Treatment by the Mixture of (Imazamox+Imazethapyr)+Sulfentrazone

Leptochloa fusca = assay: Post emergence treatment, herbicidal activity against LEFFA
Procedure: as §1

Ambrosia artemisiifolia = assay: Post emergence treatment, herbicidal activity against AMBEL
Procedure: as §1, with “(Imazamox+Imazethapyr)+Fomesafen” for “(Imazamox+Imazethapyr)+Fomesafen Post Emergence Treatment by the Mixture of (Imazamox+Imazethapyr)+Sulfentrazone”

Geranium dissectum = assay: Post emergence treatment, herbicidal activity against GERDI; design: scale not given here
Procedure: as §1

Abutilon theophrasti = assay: Post emergence treatment, herbicidal activity against ABUTH; details: Example 1, post emergence; g ai/ha: imazethapyr 15, imazamox 15, bentazon 25, mixture (15 + 15) + 25
Procedure: (§2) Synergism can be described as an interaction where the combined effect of two or more compounds is greater than the sum of the individual effects of each of the compounds. […] However, the weed control afforded by the compounds, mixtures or compositions is not limited to these species.The analysis of synergism or antagonism between the mixtures or compositions was determined using Colby's equation. Analogously, the Colby's equation can be used to determine synergism of 3-way and higher mixtures: [table] Post Emergence Treatment by the Mixture of (Imazamox+Imazethapyr)+Bentazon

Echinochloa crus-galli = assay: Post emergence treatment, herbicidal activity against ECHCG; details: Example 1, post emergence; g ai/ha: imazethapyr 15, imazamox 15, bentazon 50, mixture (15 + 15) + 50
Procedure: as §2

Setaria faberi = assay: Post emergence treatment, herbicidal activity against SETFA
Procedure: as §1, with “of” for “of (Imazamox+Imazethapyr)+Fomesafen Post Emergence Treatment by the Mixture of”

Digitaria sanguinalis = assay: Post emergence treatment, herbicidal activity against DIGSA; details: Example 1, post emergence; g ai/ha: imazethapyr 15, imazamox 15, bentazon 50, mixture (15 + 15) + 50
Procedure: as §2

Sesbania exaltata = assay: Post emergence treatment, herbicidal activity against SEBEX; design: scale not given here
Procedure: as §1

Conyza canadensis = assay: Post emergence treatment, herbicidal activity against ERICA
Procedure: as §1, with “(Imazamox+Imazethapyr)+Fomesafen” for “(Imazamox+Imazethapyr)+Fomesafen Post Emergence Treatment by the Mixture of (Imazamox+Imazethapyr)+Sulfentrazone”

Convolvulus arvensis = assay: Post emergence treatment, herbicidal activity against CONAR; details: Example 2, post emergence; g ai/ha: imazethapyr 15, imazamox 15, fomesafen 6, mixture (15 + 15) + 6
Procedure: Synergism can be described as an interaction where the combined effect of two or more compounds is greater than the sum of the individual effects of each of the compounds. […] However, the weed control afforded by the compounds, mixtures or compositions is not limited to these species.The analysis of synergism or antagonism between the mixtures or compositions was determined using Colby's equation. Analogously, the Colby's equation can be used to determine synergism of 3-way and higher mixtures: [table] Post Emergence Treatment by the Mixture of (Imazamox+Imazethapyr)+Fomesafen

Polygonum persicaria = assay: Post emergence treatment, herbicidal activity against POLPE
Procedure: as §1, with “of” for “of (Imazamox+Imazethapyr)+Bentazon Post Emergence Treatment by the Mixture of”

Panicum miliaceum = assay: Post emergence treatment, herbicidal activity against PANMI; details: Example 3, post emergence; g ai/ha: imazethapyr 15, imazamox 15, sulfentrazone 6, mixture (15 + 15) + 6
Procedure: (§3) Synergism can be described as an interaction where the combined effect of two or more compounds is greater than the sum of the individual effects of each of the compounds. […] However, the weed control afforded by the compounds, mixtures or compositions is not limited to these species.The analysis of synergism or antagonism between the mixtures or compositions was determined using Colby's equation. Analogously, the Colby's equation can be used to determine synergism of 3-way and higher mixtures: [table] Post Emergence Treatment by the Mixture of (Imazamox+Imazethapyr)+Sulfentrazone

Brachiaria decumbens = assay: Post emergence treatment, herbicidal activity against BRADC; details: Example 3, post emergence; g ai/ha: imazethapyr 15, imazamox 15, sulfentrazone 10, mixture (15 + 15) + 10
Procedure: as §3

[1] = Example 1, post emergence, g ai/ha: imazethapyr 15, imazamox 15, bentazon 25, mixture (15 + 15) + 25
[2] = Example 2, post emergence, g ai/ha: imazethapyr 15, imazamox 15, fomesafen 6, mixture (15 + 15) + 6
[3] = Example 3, post emergence, g ai/ha: imazethapyr 15, imazamox 15, sulfentrazone 6, mixture (15 + 15) + 6
[4] = Example 2, post emergence, g ai/ha: imazethapyr 15, imazamox 15, fomesafen 10, mixture (15 + 15) + 10
[5] = Example 1, post emergence, g ai/ha: imazethapyr 15, imazamox 15, bentazon 50, mixture (15 + 15) + 50
[6] = Example 3, post emergence, g ai/ha: imazethapyr 15, imazamox 15, sulfentrazone 10, mixture (15 + 15) + 10

Row | Structure (SMILES) | Herbicidal activity against PHACA Found (Phalaris canariensis; [1]) | Herbicidal activity against PHACA Found (Phalaris canariensis; [2]) | Herbicidal activity against PHACA Found (Phalaris canariensis; [3]) | Herbicidal activity against LEFFA Found (Leptochloa fusca; [1]) | Herbicidal activity against LEFFA Found (Leptochloa fusca; [2]) | Herbicidal activity against LEFFA Found (Leptochloa fusca; [3]) | Herbicidal activity against AMBEL Found (Ambrosia artemisiifolia; [1]) | Herbicidal activity against AMBEL Found (Ambrosia artemisiifolia; [4]) | Herbicidal activity against GERDI Found (Geranium dissectum; [1]) | Herbicidal activity against GERDI Found (Geranium dissectum; [2]) | Herbicidal activity against GERDI Found (Geranium dissectum; [4]) | Herbicidal activity against GERDI Found (Geranium dissectum; [3]) | Herbicidal activity against ABUTH Found (Abutilon theophrasti) | Herbicidal activity against ECHCG Found (Echinochloa crus-galli) | Herbicidal activity against SETFA Found (Setaria faberi; [5]) | Herbicidal activity against SETFA Found (Setaria faberi; [3]) | Herbicidal activity against DIGSA Found (Digitaria sanguinalis) | Herbicidal activity against SEBEX Found (Sesbania exaltata; [5]) | Herbicidal activity against SEBEX Found (Sesbania exaltata; [4]) | Herbicidal activity against SEBEX Found (Sesbania exaltata; [6]) | also measured
1 | CCc1cnc(C2=NC(C)(C(C)C)C(=O)N2)c(C(=O)O)c1 (racemic) [Imazethapyr, 5-ethyl-2-[(RS)-4-isopropyl-4-methyl-5-oxo-2-imidazolin-2-yl]nicotinic acid] | 30 | 30 | 30 | 45 | 45 | 45 | 98 | 65 | 65 | 65 | 65 | 65 | 50 | 80 | 90 | 95 | 80 | 0 | 0 | 0 | Herbicidal activity against ERICA Found (Conyza canadensis; [5]): 55; Herbicidal activity against ERICA Found (Conyza canadensis; [4]): 55; Herbicidal activity against CONAR Found (Convolvulus arvensis): 65; Herbicidal activity against POLPE Found (Polygonum persicaria; [2]): 0; Herbicidal activity against POLPE Found (Polygonum persicaria; [6]): 75; Herbicidal activity against PANMI Found (Panicum miliaceum): 70; Herbicidal activity against BRADC Found (Brachiaria decumbens): 10
2 | Cc1nn(-c2cc(NS(C)(=O)=O)c(Cl)cc2Cl)c(=O)n1C(F)F [Sulfentrazone, 2′,4′-dichloro-5′-(4-difluoromethyl-4,5-dihydro-3-methyl-5-oxo-1H-1,2,4-triazol-1-yl)methanesulfonanilide] | – | – | 0 | – | – | 0 | – | – | – | – | – | 0 | – | – | – | 0 | – | – | – | 80 | Herbicidal activity against POLPE Found (Polygonum persicaria; [6]): 80; Herbicidal activity against PANMI Found (Panicum miliaceum): 0; Herbicidal activity against BRADC Found (Brachiaria decumbens): 30
3 | COCc1cnc(C2=NC(C)(C(C)C)C(=O)N2)c(C(=O)O)c1 (racemic) [Imazamox, 2-[(RS)-4-isopropyl-4-methyl-5-oxo-2-imidazolin-2-yl]-5-methoxymethylnicotinic acid] | 65 | 65 | 65 | 85 | 85 | 85 | 98 | 70 | 80 | 80 | 95 | 80 | 95 | 98 | 98 | 98 | 98 | 45 | 45 | 45 | Herbicidal activity against ERICA Found (Conyza canadensis; [5]): 60; Herbicidal activity against ERICA Found (Conyza canadensis; [4]): 60; Herbicidal activity against CONAR Found (Convolvulus arvensis): 75; Herbicidal activity against POLPE Found (Polygonum persicaria; [2]): 95; Herbicidal activity against POLPE Found (Polygonum persicaria; [6]): 95; Herbicidal activity against PANMI Found (Panicum miliaceum): 98; Herbicidal activity against BRADC Found (Brachiaria decumbens): 35
4 | CS(=O)(=O)NC(=O)c1cc(Oc2ccc(C(F)(F)F)cc2Cl)ccc1[N+](=O)[O-] [Fomesafen, 5-(2-chloro-α,α,α-trifluoro-p-tolyloxy)-N-mesyl-2-nitrobenzamide] | – | 0 | – | – | 0 | – | – | 65 | – | 0 | 70 | – | – | – | – | – | – | – | 80 | – | Herbicidal activity against ERICA Found (Conyza canadensis; [4]): 30; Herbicidal activity against CONAR Found (Convolvulus arvensis): 0; Herbicidal activity against POLPE Found (Polygonum persicaria; [2]): 20
5 | CC(C)N1C(=O)c2ccccc2NS1(=O)=O [Bentazon, 3-isopropyl-1H-2,1,3-benzothiadiazin-4(3H)-one 2,2-dioxide] | 0 | – | – | 0 | – | – | 0 | – | 0 | – | – | – | 0 | 35 | 10 | – | 40 | 40 | – | – | Herbicidal activity against ERICA Found (Conyza canadensis; [5]): 40

Reference: patent US20160324154A1, “Herbicidal mixtures comprising imazethapyr, imazamox and fomesafen, sulfentrazone or bentazone” (BASF AGROCHEMICAL PRODUCTS B.V., priority 2014, published 2016)
